Test results: paper PMC6934975, “Natural Alpha-Glucosidase Inhibitors Rapid Fishing from Cyperus Rotundus Using Immobilized Enzyme Affinity Screening Combined with UHPLC-QTOF MS” (Iranian Journal of Pharmaceutical Research : IJPR, 2019)
Read-outs that look alike come from different tables or passages of the source.

What was measured:
[1] = target: T1, α-Glucosidase (E.C. 3.2.1.20) from Saccharomyces cerevisiae (Saccharomyces cerevisiae, UniProt P53341); assay: Kinetic analysis of AGH inhibition (Lineweaver-Burk plot); assay type: biochemical
T1 construct: purchased Sigma-Aldrich
T1 sequence (P53341 whole entry): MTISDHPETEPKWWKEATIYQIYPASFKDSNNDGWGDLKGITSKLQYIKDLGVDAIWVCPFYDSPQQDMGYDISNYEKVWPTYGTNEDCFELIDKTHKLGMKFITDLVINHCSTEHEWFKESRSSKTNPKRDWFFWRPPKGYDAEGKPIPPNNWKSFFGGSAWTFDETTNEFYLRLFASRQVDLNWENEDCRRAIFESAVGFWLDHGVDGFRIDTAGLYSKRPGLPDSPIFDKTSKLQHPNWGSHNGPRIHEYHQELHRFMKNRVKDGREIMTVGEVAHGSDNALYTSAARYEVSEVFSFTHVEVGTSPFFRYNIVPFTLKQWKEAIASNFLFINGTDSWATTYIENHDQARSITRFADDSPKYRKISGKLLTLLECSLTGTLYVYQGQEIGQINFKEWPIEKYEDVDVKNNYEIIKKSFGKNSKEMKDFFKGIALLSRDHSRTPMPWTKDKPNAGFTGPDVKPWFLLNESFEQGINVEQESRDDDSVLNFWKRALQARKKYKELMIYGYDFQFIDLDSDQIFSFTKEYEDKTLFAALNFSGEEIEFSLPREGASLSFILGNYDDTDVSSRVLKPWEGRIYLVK
Description: (§1) where AS, ASB, AC and ACB are the absorbance of sample, sample blank, control and control blank, respectively. The measurement was performed in triplicates. For kinetic analysis of AGH inhibition, a certain concentration of 0.6 U/mL AGH and different contents of sample compounds were incubated with a series of concentrations of substrate. The inhibitory kinetics of the investigated compounds was analyzed using the Lineweaver-Burk plot, double-reciprocal plot of the substrate concentration and velocity.

[2] = target: T2, immobilized α-glucosidase (Saccharomyces cerevisiae, UniProt P53341); assay: AGH inhibitors screening by immobilized AGH affinity fishing with UHPLC-QTOF-MS; assay type: binding; settings: C. rotundus extract; parallel control with blank sepharose supports
T2 construct: purchased Sigma-Aldrich
T2 sequence (P53341 whole entry): as above
Description: a-Glucosidase (0.20 mg) was dissolved in coupling buffer (0.1 M NaHCO3 and 0.5 M NaCl at pH 8.3) at a concentration of 2.0 mg protein/mL. The protein solution was mixed with CNBr-activated Sepharose^TM 4B gel at room temperature in a ratio of […] protein solution to 5 mg Sepharose^TM powder, which would swell to about […] of wet gel. The gel slurry was rotated at room temperature for 1 h to ensure the enzyme bound to the beads. After protein coupling, the resident reactive sites on the gel were blocked by reacting with 0.01 M Tris-HCl buffer at pH 8.0 for 1 h at room temperature. […] Control supports were prepared in the same manner but with no AGH being added during the immobilization step.
200 mg ground C. rotundus powder was extracted in 20 mL of 80% aqueous methanol by ultrasonic extraction for 30 min. The extract was filtered and freeze-dried, then redissolved in 10 mL affinity buffer (67 mM KH2PO4 (containing 5% methanol) at pH 6.8) and filtered through a 0.45 μm membrane as the tested extract sample.
C. rotundus extracts (400 mL) was mixed with […] immobilized AGH gel and gently stirred at 37 °C for 20 min. After incubation with the extracts, the gel were washed with 400 mL affinity buffer (67 mM KH2PO4 (containing 5% methanol) at pH 6.8) four times to remove any unbound components and then treated with […] desorbed solution (50% methanol aqueous solution at pH 3.3) to release the captured potential inhibitors of AGH. The released components were collected and concentrated to 10 mL under N2 atmosphere at 40 °C, then applied to UPLC-QTOF-MS for peak identification. Elution from the control supports was collected and analyzed in the same manner.
UHPLC-MS was performed on an Agilent 1290 Infinity LC-6520 Accurate-Mass QTOF-MS (Agilent Corporation, CA, USA). Analytes eluted from the AGH coupling supports and control supports were separated on a poroshell 120 EC-C18 column (3.0 × 50 mm, 2.7 µm , Agilent Corporation, MA, USA). The solvent system consisted of solvent A […] and solvent B (0.5% formic acid in water, v/v). The solvent A content of the mobile phase was gradient increased from 5% to 100% linearly in 20 min.
The flow rate was set at 0.4 mL/min. Mass analysis was performed in negative ESI ion mode. The operating parameters were as follows: drying gas (N2) flow rate, 8 L/min; drying gas temperature, 325 °C; nebulizer, 30 psig; capillary, 3500 V; skimmer, 65 V; fragmentor voltage, 100 V. The mass range was set at m/z 100–2000. The system was operated under Agilent MassHunter workstation acquisition software, version B.02.01 (Agilent Corporation, MA, USA).
The extract of C. rotundus was used as the real biological sample to carry out the affinity screening procedure, just as shown in Scheme 1. Firstly, α-glucosidase was immobilized on CNBr-activated sepharose beads, while blank supports were set as control. Secondly, immobilized α-glucosidase was incubated with 300 µL of C.
rotundus extracts to launch the affinity capture procedure. The highly-affinity components in C. rotundus could be specifically captured by the enzyme and fished out from the complex matrix. Thirdly, to characterize the captured compounds, the binders were released from immobilized α-glucosidase and subsequently separated and analyzed by UHPLC-QTOF MS. It was worth mentioning that not all the molecules retained on immobilized enzyme were of highly-affinity. Some of them might be non-specifically absorbed on the blank sepharose support. To eliminate this false positive, a parallel control was carried out throughout the whole screening procedure. By subtracting the signal of false positive, the highly-affinity ingredients could be recognized correctly, and these ingredients might be potent natural AGHI in C. rotundus.

[3] = target: T1, α-Glucosidase (E.C. 3.2.1.20) from Saccharomyces cerevisiae; assay: α-Glucosidase inhibitory activity assay in vitro (PNPG substrate, absorbance at 405 nm); assay type: biochemical
Excerpt: Agilent 1290 Infinity LC-6520 Accurate-Mass QTOF-MS (Agilent Technologies, PaloAlto, CA, USA); Bruker DRX-400 (400MHz for ^1H and 100MHz for ^13C) spectrometer (Bruker, Rheinstetten, Germany); α-Glucosidase (E.C. 3.2.1.20) from Saccharomyces cerevisiae, p-nitrophenyl a-D-glucopyranoside (PNPG) and glutathione (GSH) were purchased from Sigma-Aldrich (St Louis, MO, USA). CNBr-activated Sepharose^TM 4B was purchased from Phamacia Biotech AB (Uppsala, Sweden). Distilled water was purified by a Milli-Q water purification apparatus (Millipore, Bedford, MA). All other reagents were of analytical grade.
Each of the dried ground powder (3 g) was extracted in 30 mL of 80% aqueous methanol by ultrasonic extraction for 60 min at room temperature. After centrifugation at 5000 rpm for 5 min, the combined extract was evaporated under reduced pressure to dryness. To each herb extract, DMSO was added to get 5 mg/mL solution, respectively.
The α-glucosidase inhibitory activity was determined spectrophotometrically on 96-well microplate reader. In brief, to a total of 310 μL of reaction mixture containing 265 μL of 67 mM phosphate buffer (pH 6.8), 10 μL of 3 mM glutathione, 25 μL of 10 mM p-nitrophenyl-α-D-glucopyranoside and 10 μL of investigated compounds in the wells was added 10 μL of 0.3 U/mL α-glucosidase and mixed. All the reagents used in this assay were dissolved in the same phosphate buffer (67 mM, pH 6.8). After incubation for 10 min at 37 °C, the reaction was stopped by adding […] of 0.1 M Na2CO3 solution. Then the absorbance of sample (AS) at 405 nm was recorded (SunriseTM microplate absorbance reader, Tecan, Austria). The control was the same mixture except for the investigated sample replaced by the phosphate buffer. The sample blank and control blank were the same mixtures as sample and control, respectively, except α-glucosidase was instead with phosphate buffer, respectively.
The α-glucosidase inhibition activity (%) of test sample could be calculated as
Inhibition activity (%) = […]
as §1

α-glucosidase = test system: α-glucosidase; set-up: method as in PMID 24044731; settings: cited from earlier work

Row | Compound | alpha-glucosidase inhibitory kinetic mode ([1]; Lineweaver-Burk plots) | Affinity capture result on immobilized α-glucosidase after subtracting the blank support signal [2] | Ki [1] | IC50 [3] | α-glucosidase inhibitory activity in words [3] | α-glucosidase inhibitors in C. rotundus (reported) (α-glucosidase) | Ki ([1]; Lineweaver-Burk plots, Table 2, read-out: alpha-glucosidase inhibitory Ki) | IC50 ([3]; Table 2, read-out: alpha-glucosidase inhibitory IC50)
1 | C[C@H]1O[C@H](O[C@H]2[C@H](O)[C@@H](O)[C@@H](O[C@H]3[C@H](O)[C@@H](O)C(O)O[C@@H]3CO)O[C@@H]2CO)[C@H](O)[C@@H](O)[C@@H]1N[C@H]1C=C(CO)[C@@H](O)[C@H](O)[C@H]1O (stereo partly drawn) [Acarbose (reference), Acarbose, reference compound] | competitive |  |  |  |  |  |  | 
2 | Oc1ccc(/C=C/c2c3c(cc4c2[C@H](c2cc(O)cc(O)c2)[C@@H](c2ccc(O)c(O)c2)O4)O[C@H](c2ccc(O)c(O)c2)[C@H]3c2cc(O)cc(O)c2)cc1 [Cyperusphenol A (1), (E)-cyperusphenol A] | Noncompetitive | highly-affinity binders | 11.2 µM | 1.43 ± 0.11 µM | potent natural AGHIs |  |  | 
3 | Oc1cc2c3c(c1)C1c4c(cc(O)cc4C4c5c(cc(O)cc5C3C(c3ccc(O)c(O)c3)O2)OC4c2ccc(O)c(O)c2)OC1c1ccc(O)c(O)c1 (stereo not drawn) [Cyperusphenol D (3), Cyperusphenol D] | Noncompetitive | highly-affinity binders | 8.63 µM | 1.18 ± 0.11 µM | potent natural AGHIs |  |  | 
4 | Oc1ccc(/C=C/c2c3c(cc4c2[C@@H](c2cc(O)cc(O)c2)[C@H](c2ccc(O)c(O)c2)O4)O[C@H](c2ccc(O)c(O)c2)[C@H]3c2cc(O)cc(O)c2)cc1 [Mesocyperusphenol A (2), mesocyperusphenol A] | Noncompetitive | highly-affinity binders | 10.7 µM | 1.44 ± 0.17 µM | potent natural AGHIs |  |  | 
5 | Oc1ccc(/C=C/c2cc(O)cc3c2C(c2cc(O)cc(O)c2)C(c2ccc(O)c(O)c2)O3)cc1 (stereo not drawn) [Scirpusins A (5), Scirpusins A] | Noncompetitive | highly-affinity binders |  |  |  | natural α-glucosidase inhibitors | 136 µM | 21.4 ± 1.4 µM
6 | Oc1cc(O)cc(C2c3c(/C=C/c4ccc(O)c(O)c4)cc(O)cc3OC2c2ccc(O)c(O)c2)c1 (stereo not drawn) [Scirpusins B (4), Scirpusins B] | Noncompetitive | highly-affinity binders | 95.4 µM | 13.3 ± 1.66 µM |  | natural α-glucosidase inhibitors |  | 
7 | CC1=C2C(O)C3CC(O)C(C)C2(CC1O)C3(C)C (stereo not drawn) [sugetriol] |  | absorbed only on the support matrix |  |  |  |  |  | 
